Blank lines part the entries; values can stand above or below the compound they belong to.
Legend:
human androgen receptor [1] = molecular target: T1, human androgen receptor (Homo sapiens, UniProt P10275); assay: Androgen receptor reporter gene assay, agonist action (MMTV-Luc, pSG5-hAR and Renilla Luc vectors transfected into HeLa cells, dual-luciferase); type: cell-based; conditions: for FI5 value: concentration showing a transcriptional activity five times that without compound, tested at 1, 10, 100, 1000 and 10000 nmol/L
T1 construct: expressed in transfected cells; host or cells: HeLa cells
T1 sequence (P10275 1-920): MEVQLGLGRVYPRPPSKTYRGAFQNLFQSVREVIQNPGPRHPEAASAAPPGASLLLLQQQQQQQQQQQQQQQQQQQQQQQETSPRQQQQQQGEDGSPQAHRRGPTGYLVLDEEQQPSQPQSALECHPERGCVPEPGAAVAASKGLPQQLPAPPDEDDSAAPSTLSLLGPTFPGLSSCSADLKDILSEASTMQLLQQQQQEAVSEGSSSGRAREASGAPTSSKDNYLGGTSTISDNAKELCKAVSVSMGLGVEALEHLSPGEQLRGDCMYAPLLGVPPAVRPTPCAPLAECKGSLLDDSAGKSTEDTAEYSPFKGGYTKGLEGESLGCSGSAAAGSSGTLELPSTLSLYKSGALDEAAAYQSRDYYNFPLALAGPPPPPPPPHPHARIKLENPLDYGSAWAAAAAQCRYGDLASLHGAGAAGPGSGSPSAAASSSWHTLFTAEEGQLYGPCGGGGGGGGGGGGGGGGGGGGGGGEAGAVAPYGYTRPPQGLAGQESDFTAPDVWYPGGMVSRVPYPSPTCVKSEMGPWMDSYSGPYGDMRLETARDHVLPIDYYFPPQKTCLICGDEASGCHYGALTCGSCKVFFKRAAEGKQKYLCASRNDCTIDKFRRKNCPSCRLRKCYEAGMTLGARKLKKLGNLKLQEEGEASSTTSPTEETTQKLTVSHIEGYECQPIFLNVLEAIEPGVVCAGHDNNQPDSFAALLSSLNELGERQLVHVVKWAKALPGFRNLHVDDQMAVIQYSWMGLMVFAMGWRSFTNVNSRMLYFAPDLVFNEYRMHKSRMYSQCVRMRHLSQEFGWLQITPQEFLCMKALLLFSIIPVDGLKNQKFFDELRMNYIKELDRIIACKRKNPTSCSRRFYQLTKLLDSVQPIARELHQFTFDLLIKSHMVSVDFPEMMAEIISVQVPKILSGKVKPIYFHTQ
Description: Speaking of the substance of the invention which acts as antagonist against but not as agonist for the androgen receptor, the expression "not acting as agonist" means that in the following androgen receptor gene assay, the transcriptional activity value of the substance at any concentration of 0.1 nmol/L - 10 µmol/L is from one to five times the transcriptional activity value for no addition of the substance which is taken as unity:
Twenty-four hours before transfection, 1.0 x 10^5 HeLa cells (purchased from Dainippon Pharmaceutical Co., Ltd.) are cultured in phenol red free Dulbecco's modified Eagle medium (DMEM) containing 5% of charcoal-treated FBS (DCC-FBS) in 12-well microplates. Five hundred nanograms/well of MMTV-Luc vector (the reporter plasmid of luciferase having mouse tumor long terminal repeats containing the androgen response element: GM-CAT vector (A.T.C.C. No. 67282) purchased from A.T.C.C. provided that the chloramphenicol acetyl transferase gene was replaced by the firefly luciferase gene), 100 ng/well of pSG5-hAR (the expression vector of the human androgen receptor which harbors the androgen receptor gene under the control of SV40 promoter) and 5 ng/well of Renilla Luc vector (a vector for internal standard incorporating the sea pansy luciferase gene) are transfected into the HeLa cells. The transfection is performed in a liquid culture of the phenol red free DMEM using […] of lipofectoamine (GibcoBRL). Nine hours after the transfection, the liquid culture is replaced by phenol red free DMEM/3% DCC-FBS containing 10 µmol/L of a compound of the invention which is represented by the general formula (I) or the substance of the invention which acts as antagonist against but not as agonist for the androgen receptor. The transcriptional activity value is measured 48 hours after the replacement of the liquid culture. Transcriptional activity is measured with a dual-luciferase reporter assay system (Promega). The transcriptional activity value is defined as the value for firefly luciferase divided by the value for sea pansy luciferase. […] 270, pp. 19998-20003, 1995.
(§1) Twenty-four hours before transfection, 1.0 x 10^5 HeLa cells were cultured in phenol red free DMEM/5% DCC-FBS on 12-well microplates. Five hundred nanograms/well of MMTV-Luc vector, 100 ng/well of pSG5-hAR and 5 ng/well of Renilla Luc vector were transfected into the HeLa cells. The transfection was performed in a liquid culture of the phenol red free DMEM using […] of lipofectoamine. […] The transcriptional activity value was measured 48 hours after the replacement of the liquid culture. Transcriptional activity was measured with a dual-luciferase reporter assay system. The transcriptional activity value was calculated as the value for firefly luciferase divided by the value for sea pansy luciferase.
The compound was added at concentrations of 1, 10, 100, 1000 and 10000 nmol/L. Agonist activity = Transcriptional activity when the compound was added/Transcriptional activity when the compound was not added [formula]

human androgen receptor [2] = molecular target: T1, human androgen receptor; assay: Androgen receptor reporter gene assay, antagonist action against DHT (MMTV-Luc, pSG5/hAR and Renilla Luc vectors transfected into HeLa cells, dual-luciferase); type: cell-based
Method: The expression "acting as antagonist" means that in the following androgen receptor gene assay, the transcriptional activity value of 0.1 nmol/L of dihydrotestosterone (DHT) is inhibited to 0 - 50% at any concentration of 0.1 nmol/L - 10 µmol/L:
Twenty-four hours before transfection, 1.0 x 10^5 HeLa cells are cultured in phenol red free DMEM/5% DCC-FBS on 12-well microplates. Five hundred nanograms/well of MMTV-Luc vector, 100 ng/well of pSG5/hAR and 5 ng/well of Renilla Luc vector are transfected into the HeLa cells. The transfection is performed in a liquid culture of the phenol red free DMEM using […] of lipofectoamine. Nine hours after the transfection, the liquid culture is replaced by phenol red free DMEM/3% DCC-FBS containing 0.1 nmol/L of DHT and […] of a compound of the invention which is represented by the general formula (I) or the substance of the invention which acts as antagonist against but not as agonist for the androgen receptor. The transcriptional activity value is measured 48 hours after the replacement of the liquid culture. Transcriptional activity is measured with a dual-luciferase reporter assay system. The transcriptional activity value is defined as the value for firefly luciferase divided by the value for sea pansy luciferase. […] 270, pp. 19998-20003, 1995.
as §1, with “pSG5/hAR” for “pSG5-hAR”
The compound was added at concentrations of 1, 10, 100, 1000 and 10000 nmol/L and at each of these concentrations, measurement was done in the presence of DHT (0.1 nmol/L). Antagonist activity = Transcriptional activity when the compound was added/Transcriptional activity when the compound was not added x 100 [formula]

androgen receptor = androgen receptor (Homo sapiens, UniProt P10275); conditions: cited from earlier work
[3] = prostate cancer patients under flutamide treatment; cited from earlier work
castrated rats = conditions: two-week continuous administration; cited from earlier work

acting as agonist (human androgen receptor [1]; at a concentration of 10 µmol/L): act as agonist
FI5 value (human androgen receptor [1]): 1000 nM
agonist action for the androgen receptor mediated transcriptional activity (human androgen receptor [1]; summary of the results of Example 180): exhibit agonist action
transcriptional activity value of DHT (human androgen receptor [2]; text of Example 2, with 0.1 nmol/L of DHT, HeLa cells, 48 hours): less than 50%
Structure (SMILES): CC(C)(O)C(=O)Nc1ccc([N+](=O)[O-])c(C(F)(F)F)c1 [Hydroxyflutamide, hydroxyflutamide]
transcriptional activity of the androgen receptor (androgen receptor): elevated
Plasma levels [3]: several

Structure (SMILES): CC(=O)O[C@]1(C(C)=O)CC[C@H]2[C@@H]3C=C(Cl)C4=CC(=O)[C@@H]5C[C@@H]5[C@]4(C)[C@H]3CC[C@@]21C [cyproterone acetate]
prostate weight (castrated rats): increased

Structure (SMILES): CC12CCC3C(C(CCCCCCCC(=O)N4CCCC4)CC4CC(=O)CCC43C)C1CCC2O (stereo not shown) [Example 29]
FI5 value (human androgen receptor [1]): ND (even when the compound was added at a concentration of 10000 nM, the transcriptional activity of the compound-treated group was less than 5 times the transcriptional activity of the control group, making it impossible to compute the FI5 value)
IC50 (human androgen receptor [2]): 0.304 µM

Structure (SMILES): CC(=O)O[C@]1(C(C)=O)CC[C@H]2[C@@H]3C=C(Cl)C4=CC(=O)CC[C@]4(C)[C@H]3CC[C@@]21C [chlormadinone acetate]
prostate weight (castrated rats): increased

Source: patent publication EP1219631A1, “ANTIANDROGEN AGENTS” (CHUGAI SEIYAKU KABUSHIKI KAISHA, priority 1999, dated 2001)
